We go through 27 compounds from patent publication US5554640A, “Use of propanolamine derivatives as selective 5-HT1 antagonists” (Eli Lilly and Company, priority 1995, dated 1996).

For one assay, the target named is β-adrenergic receptors. The experiment in a line: Binding of 3H-dihydroalprenolol to β-adrenergic receptors, calf brain cortical membranes. Details: species or system bovine (calf). As to conditions: inhibition of 2 nM 3H-dihydroalprenolol binding, 20° C, 20 minutes, pH 7.4, read-out: Beta IC50. Here is the method:
The compounds of this invention were evaluated in the following tests systems. Procedure for radioligand receptor assays--Male Sprague-Dawley rats weighing 110-150 g were decapitated and brains were immediately removed. Bovine brains were quickly removed from calf in the slaughterhouse. Cerebral cortices were dissected out at 4° C. and homogenized in 0.32M sucrose. After centrifugation at 1000×g for 10 minutes and then 17,000×g for 20 minutes, a crude synaptosomal fraction was sedimented. The pellet was suspended in 100 volumes of 50 mM tris-HCl buffered at pH 7.4, incubated at 37° C. for 10 minutes, and centrifuged at 50,000×g for 10 minutes. The process was repeated and the final pellet was suspended in ice-chilled 50 mM tris-HCl buffered at pH 7.4. […] Cortical membranes (500 μg protein) of calf brain were incubated at 20° C. for 20 minutes in 2 ml of medium containing […] tris-HCl buffered at pH 7.4; 2 nM 3H-dihydroalprenolol; and various concentrations of test compound. Binding was terminated by filtering samples through glass fiber (GFC) filters. […] Other conditions were as described for 3[…] binding.

For assay [1], the target named is T1, serotonin-1A receptor (5-HT1A) (Rattus norvegicus, UniProt P19327).
T1 sequence (P19327 1-422): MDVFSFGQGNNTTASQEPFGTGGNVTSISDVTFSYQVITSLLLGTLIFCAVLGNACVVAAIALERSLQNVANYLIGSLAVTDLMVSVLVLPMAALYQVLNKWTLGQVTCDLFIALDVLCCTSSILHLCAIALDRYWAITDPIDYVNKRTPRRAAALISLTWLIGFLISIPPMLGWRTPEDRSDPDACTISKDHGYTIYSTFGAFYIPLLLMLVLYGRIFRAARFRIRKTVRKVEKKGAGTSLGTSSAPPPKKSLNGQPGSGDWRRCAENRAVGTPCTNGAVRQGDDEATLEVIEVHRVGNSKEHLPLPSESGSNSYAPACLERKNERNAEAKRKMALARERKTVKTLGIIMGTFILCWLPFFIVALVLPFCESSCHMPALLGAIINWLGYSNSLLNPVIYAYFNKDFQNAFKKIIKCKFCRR
Put plainly: biochemical. The format is binding, rat (Sprague-Dawley). As to conditions: for Ratio Beta IC50 / 5-HT1A IC50: selectivity for 5-HT1A over beta receptor, Beta IC50 from 3H-dihydroalprenolol binding. The method, then:
The compounds of this invention were evaluated in the following tests systems.
Procedure for radioligand receptor assays--Male Sprague-Dawley rats weighing 110-150 g were decapitated and brains were immediately removed. Bovine brains were quickly removed from calf in the slaughterhouse. Cerebral cortices were dissected out at 4° C. and homogenized in 0.32M sucrose. After centrifugation at 1000×g for 10 minutes and then 17,000×g for 20 minutes, a crude synaptosomal fraction was sedimented. The pellet was suspended in 100 volumes of 50 mM tris-HCl buffered at pH 7.4, incubated at 37° C. for 10 minutes, and centrifuged at 50,000×g for 10 minutes. The process was repeated and the final pellet was suspended in ice-chilled 50 mM tris-HCl buffered at pH 7.4.
Binding of ^3 H-8-hydroxy-2- (di-n-propylamino) tetralin(3H-80HDPAT) to serotonin-1A receptor was performed according to the method described by Wong et al., J. Neural Transm. , 71, 207 (1988). Cortical membranes (300 μg protein) isolated from rat brain were incubated at 28 C for 30 minutes in 2 ml of medium containing 50 mM tris-HCl buffered at pH 7.4; 10 μM pargyline; 0.6 mM ascorbic acid; 5 mM calcium chloride; 0.4 nM 3H-8OHDPAT; and various concentrations of test compound. Binding was terminated by filtering samples under reduced pressure through glass fiber (GFB) filters. The filters were washed twice with 5 ml of ice cold buffer and placed in scintillation vials with 10 ml of PCS (Amlersham/Searle) scintillation fluid. Radioactivity was measured with a liquid scintillation spectrometer. Specific binding of 3H-80HDPAT is defined as the difference of radioactivity bound in the absence and in the presence of 10 μM spiperone.

Assay [2] deals with 5-HT1A and 5-HT1B receptors. As to conditions: background knowledge; cited from earlier work.
Setting [3] is: inhibition of 0.4 nM 3H-8OHDPAT binding, rat cortical membranes, 28 C, 30 minutes, pH 7.4.

In general, IC50 refers to the midpoint of a concentration-inhibition curve.

“Also recorded” adds a separate entry of the source. Where two headings read alike, the source gives them in different places.

As for `O=C(O)C(=O)O.OC(CNC1CCCCCCC1)COc1cccc2ccccc12` (stereo not drawn) [(cyclooctyl), 1-(1-Naphthalenoxy)-3-(cyclooctylamino) -2-propanol ethanedioate], the results for the 50% inhibitory concentration (IC50) (at β-adrenergic receptors; in assay [1]) were 1000 nM and 45 nM, respectively. The “Ratio Beta IC50 / 5-HT1A IC50” value in assay [1] was found to be 22.2.
For `CCCCNCC(O)COc1cccc2ccccc12` (stereo not drawn) [CH2 CH2 CH2 CH3], the IC50 was 124 nM on β-adrenergic receptors and 36.9 nM in assay [1] (setting [3]). Moreover, the “Ratio Beta IC50 / 5-HT1A IC50” value in assay [1] is on record as 3.4.
Turning to `CCCCCNCC(O)COc1cccc2ccccc12` (stereo not drawn) [CH2 CH2 CH2 CH2 CH3], the IC50 at β-adrenergic receptors was 185 nM; in assay [1] (setting [3]), 23.4 nM. The “Ratio Beta IC50 / 5-HT1A IC50” value in assay [1] is on record as 7.9.
For `C#CC(C)NCC(O)COc1cccc2ccccc12` (stereo not drawn) [CH(CH3)CCH], in that order: 1270 nM, 180 nM and 7.1.
In the case of `O=C(O)C(=O)O.OC(CNC1CCCCCC1)COc1ccccc1C1CCCC1` (stereo not drawn) [cycloheptyl, 1-(2-Cyclopentylphenoxy)-3-(cycloheptylamino) 2-propanol ethanedioate], the IC50 on β-adrenergic receptors amounted to 48 nM; in assay [1], 3 nM. The “Ratio Beta IC50 / 5-HT1A IC50” value in assay [1] came out at 16.
With `OC(CNC1CCCC1)COc1cccc2ccccc12` (stereo not drawn) [(cyclopentyl)], the figures for the IC50 (on β-adrenergic receptors; in assay [1] (setting [3])) were 138 nM and 49 nM, respectively. Also, the “Ratio Beta IC50 / 5-HT1A IC50” value in assay [1] was 2.8.
For `C#CC(C)(C)NCC(O)COc1cccc2ccccc12` (stereo not drawn) [C(CH3)2 CCH], the results for the IC50 (at β-adrenergic receptors; in assay [1] (setting [3])) were 1360 nM and 88 nM, respectively. Besides, the “Ratio Beta IC50 / 5-HT1A IC50” value in assay [1] is 15.4.
On to `CC1CCCCC1NCC(O)COc1cccc2ccccc12` (stereo not drawn) [(2-methylcyclohexyl)], for which the IC50 turned out to be 174 nM on β-adrenergic receptors and 33.4 nM in assay [1] (setting [3]). The “Ratio Beta IC50 / 5-HT1A IC50” value in assay [1] came to 5.2.
For `CCC(C)(C)NCC(O)COc1cccc2ccccc12` (stereo not drawn) [C(CH3)2 CH2 CH3], in that order: 1050 nM, 53 nM and 20.
Regarding `OC(CNCCc1ccccc1)COc1cccc2ccccc12` (stereo not drawn) [CH2 CH2 C6 H5], the IC50 on β-adrenergic receptors is 313 nM; in assay [1] (setting [3]) it was 63 nM. Also, in assay [1], the “Ratio Beta IC50 / 5-HT1A IC50” value stood at 4.8.
Consider `OC(CN[C@H]1CC[C@H](c2ccccc2)CC1)COc1cccc2ccccc12` (stereo partly drawn) [(E-4-phenylcyclohexyl)], for which the figures for the IC50 (on β-adrenergic receptors; in assay [1] (setting [3])) were 264 nM and above 1000 nM, respectively. Moreover, the “Ratio Beta IC50 / 5-HT1A IC50” value in assay [1] is recorded as below 0.26.
With `CC(C)NCC(O)COc1cccc2[nH]ccc12` (stereo not drawn) [pindolol], the “antagonism of 5-HT1 receptors relative to β-block (in words)” value in assay [2] is given as “at concentrations far in excess of those shown to block the β-receptor; also recorded: not selective agents for the serotonin receptor due to their β-blocking activities”.
For the compound `CCC(C)NCC(O)COc1cccc2ccccc12` (stereo not drawn) [CH(CH3)CH2 CH3], the IC50 at β-adrenergic receptors was determined as 104 nM; in assay [1] (setting [3]), 73 nM. In assay [1], the “Ratio Beta IC50 / 5-HT1A IC50” value came to 1.4.
Take `O=C(O)C(=O)O.OC(CNC1CCCCCC1)COc1cccc2ccccc12` (stereo not drawn) [(cycloheptyl), 1-(1-Naphthalenoxy) -3-(cycloheptylamino) -2-propanol ethanedioate]: at β-adrenergic receptors, the IC50 worked out at 2280 nM. Also, in assay [1], half-maximal inhibition (IC50) required 23 nM and the “Ratio Beta IC50 / 5-HT1A IC50” value turned out to be 99.
On to `CC(C)CNCC(O)COc1cccc2ccccc12` (stereo not drawn) [CH2 CH(CH3)2], for which the IC50 on β-adrenergic receptors amounted to 683 nM; in assay [1] (setting [3]) it was 73 nM. Besides, the “Ratio Beta IC50 / 5-HT1A IC50” value in assay [1] came out at 9.4.
For `OC(CN[C@H]1CC[C@@H](c2ccccc2)CC1)COc1cccc2ccccc12` (stereo partly drawn) [(Z-4-phenylcyclohexyl)], in that order: 442 nM, 34.1 nM and 13.
With `CCCC(C)(C)NCC(O)COc1ccccc1C1CCCC1.O=C(O)C(=O)O` (stereo not drawn) [CH(CH3)2 CH2 CH2 CH3, 1-(2-Cyclopentylphenoxy)-3-(1,1-dimethylbutylamino) -2-propanol ethanedioate], at β-adrenergic receptors, the IC50 came out at 16 nM. Besides, in assay [1], 6.5 nM corresponded to half-maximal inhibition (IC50) and the “Ratio Beta IC50 / 5-HT1A IC50” value is 2.5.
For `OC(CNC1CCCC1)COc1ccccc1C1CCCC1` (stereo not drawn) [cyclopentyl], the results for the IC50 (at β-adrenergic receptors; in assay [1] (setting [3])) were 7 nM and 5 nM, respectively. For the same compound, the “Ratio Beta IC50 / 5-HT1A IC50” value in assay [1] amounted to 1.4.
Regarding `O=C(O)/C=C\C(=O)O.OC(CNC1CCCCC1)COc1cccc2[nH]ccc12` (stereo not drawn) [Cyclohexyl, 1-(4-Indolyloxy)-3-(cyclohexylamino)-2-propanol maleate], the values for the IC50 (on β-adrenergic receptors; in assay [1] (setting [3])) were 56 nM and 10.3 nM, respectively. Besides, the “Ratio Beta IC50 / 5-HT1A IC50” value in assay [1] worked out at 5.4.
In the same order, the values of `CC#CC(C)(C)NCC(O)COc1cccc2ccccc12` (stereo not drawn) [C(CH3)2 CCCH3] are 398 nM, 38 nM and 10.5.
For `CC(C)(C)C(C)(C)NCC(O)COc1cccc2ccccc12` (stereo not drawn) [C(CH3)2 C(CH3)3], in that order: 225 nM, 16.8 nM and 15.2.
`C=CC(C)(C)NCC(O)COc1cccc2ccccc12` (stereo not drawn) [C(CH3)2 CHCH2]: the values for the half-inhibitory concentration (IC50) (at β-adrenergic receptors; in assay [1] (setting [3])) were 124 nM and 100 nM, respectively. In addition, in assay [1], the “Ratio Beta IC50 / 5-HT1A IC50” value turned out to be 1.24.
For the compound `O=C(O)C(=O)O.OC(CNC1CCCCCCC1)COc1ccccc1C1CCCC1` (stereo not drawn) [cyclooctyl, 1-(2-Cyclopentylphenoxy) -3-(cyclooctylamino) 2-propanol ethanedioate], the IC50 on β-adrenergic receptors is above 1000 nM. For the same compound, in assay [1], the IC50 turned out to be 5 nM and the “Ratio Beta IC50 / 5-HT1A IC50” value was above 200.
For `CC(C)(C)NCC(O)COc1cccc2ccccc12` (stereo not drawn) [C(CH3)3], the IC50 on β-adrenergic receptors stood at 97.3 nM; in assay [1] (setting [3]), 77 nM. Also, the “Ratio Beta IC50 / 5-HT1A IC50” value in assay [1] is 1.3.
`OC(CNC1CCCCC1)COc1cccc2ccccc12` (stereo not drawn) [(cyclohexyl)]: the IC50 came to 622 nM at β-adrenergic receptors and 15.4 nM in assay [1] (setting [3]). The “Ratio Beta IC50 / 5-HT1A IC50” value in assay [1] was determined as 40.4.
`CCCC(C)(C)NCC(O)COc1cccc2ccccc12` (stereo not drawn) [C(CH3)2 CH2 CH2 CH3]: the values for the IC50 (on β-adrenergic receptors; in assay [1] (setting [3])) were 98 nM and 41 nM, respectively. Also, in assay [1], the “Ratio Beta IC50 / 5-HT1A IC50” value is 2.4.
Take `COCC(C)NCC(O)COc1cccc2ccccc12` (stereo not drawn) [CH(CH3)CH2 OCH3]: the IC50 amounted to 65 nM on β-adrenergic receptors and 147 nM in assay [1] (setting [3]).
